Reference: US20040214832A1, “Piperazine derivative renin inhibitors” (priority 2003, published 2004)

biological target: T1, human renin (Homo sapiens, UniProt P00797); experiment: Determination of renin IC50 by tGFP FRET assay; assay type: biochemical; settings: Human recombinant renin, tandem GFP substrate 650 nM, 60 min incubation with compound, pH 7.4, 11-point curve
T1 sequence (P00797 67-406): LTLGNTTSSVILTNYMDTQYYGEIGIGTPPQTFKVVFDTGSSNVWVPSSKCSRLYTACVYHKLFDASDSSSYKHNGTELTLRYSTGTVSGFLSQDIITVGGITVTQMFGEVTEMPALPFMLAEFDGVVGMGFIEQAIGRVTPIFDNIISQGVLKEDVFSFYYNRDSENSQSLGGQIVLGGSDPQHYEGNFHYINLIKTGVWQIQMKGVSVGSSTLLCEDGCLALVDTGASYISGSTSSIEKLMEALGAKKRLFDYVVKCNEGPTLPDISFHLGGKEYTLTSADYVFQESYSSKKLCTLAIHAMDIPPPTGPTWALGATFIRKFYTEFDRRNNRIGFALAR
Method in brief: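 Human recombinant renin (final 50.4 μIU) preincubated 60 min with compound (5% DMSO final) in 50 mM HEPES, 1 mM EDTA, 1% PEG 8000, 1 mM DTT, 0.1% BSA, pH 7.4, then tandem-GFP substrate added at 650 nM final. FRET fluorescence read; IC50 from 11-point curves spanning 100 μM–1 pM.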

IC50 [nM] | SMILES
> 1000 | COC(=O)c1cc(N2C(=O)CNC[C@@H]2COc2ccc3ccccc3c2)ccc1OCCCOCc1ccccc1OC [Example 96, 2-[(5R)-3-(2-methoxybenzyloxy)-propoxy]-5-[2-(naphthalene-2-yloxymethyl)-6-oxopiperazin-1-yl]-benzoic acid methyl ester]
440 | COc1ccccc1COCCCOc1ccc(N2CCNC[C@@H]2COc2ccc3c(c2)CCCC3)cc1 [Example 40, (2R)-1-{4-[3-(2-methoxybenzyloxy)-propoxy]-phenyl}-2-(5,6,7,8-tetrahydronaphthalen-2-yloxymethyl)-piperazine]
372 | COc1ccccc1COCCCOc1ccc(N2C(=O)CNC[C@@H]2COCc2cccc(C)c2)cc1 [Example 15, (6R)-1-{4-[3-(2-methoxybenzyloxy)-propoxy]-phenyl}-6-(3-methylbenzyloxymethyl)-piperazin-2-one]
> 1000 | c1ccc(COc2ccc(N3CCNC[C@@H]3COc3ccc4ccccc4c3)cc2)cc1 [Example 35, (2R)-1-(4-benzyloxyphenyl)-2-(naphthalen-2-yloxymethyl)-piperazine]
13100 | COc1ccccc1COCCCOc1ccc(N2C(=O)CNC[C@@H]2COc2ccc3ccccc3n2)cc1 [Example 77, (6R)-1-{4-[3-(2-methoxybenzyloxy)-propoxy]-phenyl}-6-(quinolin-2-yloxymethyl)-piperazin-2-one]
2550 | COc1ccccc1COCCOCc1ccc(N2CCNC[C@@H]2COc2ccc3ccccc3c2)cc1 [Example 94, (2R)-1-{4-[2-(2-methoxybenzyloxy)-ethoxymethyl]-phenyl}-2-(naphthalene-2-yloxymethyl)-piperazine]
15900 | COc1ccc(COC[C@H]2CNCCN2c2ccc(OCCCOCc3ccccc3Cl)cc2)cc1 [Example 66, (2R)-1-{4-[3-(2-chlorobenzyloxy)-propoxy]-phenyl}-2-(4-methoxybenzyloxymethyl)-piperazine]
> 1000 | COc1ccccc1COCCCOc1ccc(N2C(=O)CNC[C@@H]2COCc2ccc(F)c(C)c2)cc1 [Example 27, (6R)-6-(4-fluoro-3-methylbenzyloxymethyl)-1-{4-[3-(2-methoxybenzyloxy)-propoxy]-phenyl}-piperazin-2-one]
4050 | COc1ccccc1COCCCOc1ccc(N2C(=O)CNC[C@@H]2COc2ccc(C(=O)N(C)C)cc2)cc1 [Example 95, 4-([2R]-1-{4-[3-(2-methoxybenzyloxy)-propoxy]-phenyl}-6-oxopiperazin-2-ylmethoxy)-N,N-dimethyl-benzamide]
> 1000 | COc1ccc(COC[C@H]2CNCCN2c2ccc(OCc3ccccc3)cc2)cc1 [Example 36, (2R)-1-(4-benzyloxyphenyl)-2-(4-methoxybenzyloxymethyl)-piperazine]
> 1000 | COc1ccccc1COCCCOc1ccc(N2C(=O)CNC[C@@H]2COc2ccc3ccccc3c2)cc1Cl [Example 100, (6R)-1-(3-chloro-4-[3-(2-methoxybenzyloxy)-propoxy]-phenyl)-6-(naphthalene-2-yloxymethyl)-piperazin-2-one]
223 | COc1ccccc1COCCCOc1ccc(N2C(=O)CNC[C@@H]2COCc2ccccc2Cl)cc1 [Example 14, (6R)-6-(2-chlorobenzyloxymethyl)-1-{4-[3-(2-methoxybenzyloxy)-propoxy]-phenyl}-piperazin-2-one]
9.59 | COC(=O)CCN1CCc2ccc(OC[C@H]3CNCC(=O)N3c3ccc(OCCCOCc4ccccc4OC)cc3)cc21 [Example 133, 3-[6-([2R]-1-{4-[3-(2-Methoxybenzyloxy)-propoxy]-phenyl}-6-oxo-piperazin-2-ylmethoxy)-2,3-dihydro-indol-1-yl]-propionic acid methyl ester]
295 | COc1ccccc1COCCCOc1ccc(N2C(=O)CNC[C@@H]2COCc2ccc(Cl)cc2)cc1 [Example 5, (6R)-6-(4-chlorobenzyloxymethyl)-1-{4-[3-(2-methoxybenzyloxy)-propoxy]-phenyl}-piperazin-2-one]
1570 | COc1ccccc1COCCCOc1ccc(N2C(=O)CNC[C@@H]2COCc2cc(F)cc(F)c2)cc1 [Example 11, (6R)-6-(3,5-difluorobenzyloxymethyl)-1-{4-[3-(2-methoxybenzyloxy)-propoxy]-phenyl}-piperazin-2-one]
